The values below come from publication PMC9289884 (Journal of Medicinal Chemistry, 2022).

pIC50, pKi: −log10 of the molar value.

Series [1] has as its system T. brucei brucei Lister 427 bloodstream forms. Briefly: Efficacy against T. brucei bloodstream forms, resazurin-based assay. The class given is cell-based, Trypanosoma brucei brucei. The following applies: 72 h; for inhibition at 10 µM: Trypanosoma brucei, read-out: % inhibition T. brucei at 10 µM ± SD; for % inhibition T. brucei at 10 µM ± SD: 10 µM compound, T. brucei brucei Lister 427 bloodstream form. (The colour change of resazurin is a common sign of viable cells or microbes.)

The next series addresses TbDHFR (Trypanosoma brucei brucei, UniProt Q27783). Briefly: biochemical.
The target of series [2] is Leishmania major PTR1 (LmPTR1). The following applies: read-out: Ki LmPTR1; cited from earlier work.
For another series, the target named is LmDHFR (Leishmania major, UniProt P07382). The experiment in a line: biochemical.
For another series, the target named is T1, hDHFR (Homo sapiens, UniProt P00374).
T1 sequence (P00374 1-187): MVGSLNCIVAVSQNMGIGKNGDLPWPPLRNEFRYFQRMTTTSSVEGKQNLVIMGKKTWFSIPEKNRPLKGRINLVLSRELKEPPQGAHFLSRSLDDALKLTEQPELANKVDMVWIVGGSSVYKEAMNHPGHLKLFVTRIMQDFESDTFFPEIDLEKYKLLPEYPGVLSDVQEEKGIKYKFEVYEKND
The experiment in a line: biochemical. The following applies: for hDHFR IC50: off-target.

The target in the next series is T2, LmPTR1 (Leishmania major, UniProt Q01782).
T2 sequence (Q01782 1-288): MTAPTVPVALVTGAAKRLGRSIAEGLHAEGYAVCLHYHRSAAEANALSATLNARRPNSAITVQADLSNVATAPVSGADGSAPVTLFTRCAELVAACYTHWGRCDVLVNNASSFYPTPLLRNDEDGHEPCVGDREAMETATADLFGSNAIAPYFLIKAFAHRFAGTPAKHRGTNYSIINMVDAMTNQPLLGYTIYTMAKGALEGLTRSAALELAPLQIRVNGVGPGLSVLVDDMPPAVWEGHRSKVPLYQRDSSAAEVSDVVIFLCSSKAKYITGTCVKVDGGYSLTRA
Briefly: biochemical.

The target in the next series is L. major DHFR (LmDHFR). Conditions: read-out: Ki LmDHFR; cited from earlier work.
The target in another series is human DHFR (hDHFR). Conditions: read-out: Ki hDHFR; cited from earlier work.
Series [3] in a line: Cytotoxicity on THP-1-derived macrophages, colorimetric MTT assay. It counts as cell-based. The following applies: human.
Another series addresses hTS (Homo sapiens, UniProt P04818). The experiment in a line: biochemical.

LmDHFR, sequence (P07382 whole entry): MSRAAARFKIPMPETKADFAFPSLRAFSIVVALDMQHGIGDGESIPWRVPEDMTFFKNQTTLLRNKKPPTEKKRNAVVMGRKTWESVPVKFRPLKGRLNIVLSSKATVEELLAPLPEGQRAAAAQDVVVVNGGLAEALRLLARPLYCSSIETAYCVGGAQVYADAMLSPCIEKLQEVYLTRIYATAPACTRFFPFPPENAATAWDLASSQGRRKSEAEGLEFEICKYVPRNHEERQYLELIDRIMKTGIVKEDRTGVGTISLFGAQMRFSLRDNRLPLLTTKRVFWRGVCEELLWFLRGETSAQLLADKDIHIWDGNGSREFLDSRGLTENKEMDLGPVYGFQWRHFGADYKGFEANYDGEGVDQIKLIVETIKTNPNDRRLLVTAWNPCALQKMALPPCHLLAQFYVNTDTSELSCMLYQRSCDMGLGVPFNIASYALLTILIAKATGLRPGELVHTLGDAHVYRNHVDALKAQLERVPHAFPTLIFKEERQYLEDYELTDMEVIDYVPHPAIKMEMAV
TbDHFR, sequence (Q27783 whole entry): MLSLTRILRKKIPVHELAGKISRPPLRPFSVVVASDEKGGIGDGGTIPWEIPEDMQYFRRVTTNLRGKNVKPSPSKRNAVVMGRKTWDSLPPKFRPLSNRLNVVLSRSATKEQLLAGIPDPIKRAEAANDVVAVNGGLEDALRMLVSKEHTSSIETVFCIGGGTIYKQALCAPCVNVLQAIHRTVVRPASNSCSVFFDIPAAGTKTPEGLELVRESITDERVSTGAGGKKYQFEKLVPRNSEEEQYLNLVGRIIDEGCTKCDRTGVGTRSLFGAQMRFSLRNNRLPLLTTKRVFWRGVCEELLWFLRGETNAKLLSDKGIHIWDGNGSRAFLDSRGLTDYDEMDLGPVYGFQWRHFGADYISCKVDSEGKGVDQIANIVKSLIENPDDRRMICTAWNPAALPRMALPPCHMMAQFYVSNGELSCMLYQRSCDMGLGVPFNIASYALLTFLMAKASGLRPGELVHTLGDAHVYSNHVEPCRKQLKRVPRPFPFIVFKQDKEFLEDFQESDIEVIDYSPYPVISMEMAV
hTS, sequence (P04818 whole entry): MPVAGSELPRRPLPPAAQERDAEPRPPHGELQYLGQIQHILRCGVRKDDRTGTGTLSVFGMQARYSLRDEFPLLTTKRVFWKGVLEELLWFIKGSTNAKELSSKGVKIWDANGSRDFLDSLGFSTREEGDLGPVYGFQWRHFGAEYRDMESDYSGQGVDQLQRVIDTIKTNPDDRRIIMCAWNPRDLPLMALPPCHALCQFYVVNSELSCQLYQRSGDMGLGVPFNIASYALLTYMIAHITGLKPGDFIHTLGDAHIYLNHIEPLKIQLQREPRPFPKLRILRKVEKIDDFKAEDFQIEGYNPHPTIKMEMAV

One may read the inhibition as the relative decrease from the control value, in per cent. Take `Nc1nc(N)c2nc(CNc3ccc(C(=O)NCCc4ccccc4)cc3)cnc2n1` [Compound 4e]: in series [1], the inhibition at 10 µM turned out to be 40%. By pIC50 is commonly meant −log10 of the IC50, conventionally taken in molar units. In general, pKi refers to the negative decadic logarithm of the Ki, by convention in mol/L. For `COC(=O)C1CCN(C(=O)c2ccc(N(C)Cc3cnc4nc(N)nc(N)c4n3)cc2)CC1` [Compound 1b, methyl-1-(4-(((2,4-diaminopteridin-6-yl)methyl)(methyl)amino)benzoyl)piperidine-4-carboxylate, reference compound], the pIC50 on TbDHFR and against LmDHFR was 6.52 throughout. The negative logarithm of the Ki (pKi) in [2] is 7.40. Take `Nc1nc(N)c2nc(CNc3cccc4ccccc34)cnc2n1` [Compound 3c]: the values for the pIC50 on TbDHFR and against hDHFR were 6.30 and 5.40, respectively.

Consider `COc1cc(Oc2ccc(CNCc3cnc4nc(N)nc(N)c4n3)cc2)cc(OC)c1OC` [Compound 4j], for which, in [1], the “% inhibition T. brucei at 10 µM ± SD” value is “inactive”. At LmPTR1, `CN(Cc1cnc2nc(N)nc(N)c2n1)c1ccc(C(=O)N2CCCCC2)cc1` [Compound 4c] showed a pIC50 of 7.00.

For the molecule `COC(=O)C1CCN(C(=O)c2ccc(NCc3cnc4nc(N)nc(N)c4n3)cc2)CC1` [Compound 1c, methyl-1-(4-(((2,4-diaminopteridin-6-yl)methyl)amino)benzoyl)piperidine-4-carboxylate], the pKi on L. major DHFR (LmDHFR) was 5.40; in [2] it was 7.00; on human DHFR (hDHFR), 5.00. For the molecule `Nc1nc(N)c2nc(C(=O)NCc3ccccc3)cnc2n1` [Compound 3d], the “TbDHFR IC50” value at TbDHFR is given as “do not show inhibitory activity”. For the same molecule, the “LmDHFR IC50” value at LmDHFR is listed as “do not show inhibitory activity”. As a reminder, the CC50 is the concentration giving 50% cytotoxicity. Read a high CC50 as lower toxicity to the cells. `COc1ccc(Oc2ccc(CN(C)Cc3cnc4nc(N)nc(N)c4n3)cc2)cc1` [Compound 5f] gave a CC50 in series [3] of 12500 to 25000 nM.

In [3], `CCN(Cc1cnc2nc(N)nc(N)c2n1)c1ccc(C(=O)c2ccccc2)cc1` [Compound 5d] displayed a CC50 of 25000 to 50000 nM.

In the case of `NC(=O)C1CCCN1C(=O)Cc1ccc(N(CCCO)Cc2cnc3nc(N)nc(N)c3n2)cc1` (centres unmarked) [Compound 5b], at hTS, the pIC50 was 4.54. In addition, the “hDHFR IC50” value on hDHFR is “inactive”.

Turning to `Nc1nc(N)c2nc(C(=O)NCc3cccc(C(F)(F)F)c3)cnc2n1` [Compound 3e], the “TbDHFR IC50” value on TbDHFR is reported as “do not show inhibitory activity”. The “LmDHFR IC50” value on LmDHFR is “do not show inhibitory activity”.

As to `Nc1nc(N)c2nc(CNCc3ccc(Oc4ccccc4)cc3)cnc2n1` [Compound 4h], in series [1], the “% inhibition T. brucei at 10 µM ± SD” value is “inactive”. Molecule `CCOC(=O)C1CCN(C(=O)c2ccc(N(CC)Cc3cnc4nc(N)nc(N)c4n3)cc2)CC1` [Compound 5c] had a pIC50 against LmDHFR of 6.70. The same measure, in the same setting: for `CCOC(=O)C1CCN(C(=O)c2ccc(N(C)Cc3cnc4nc(N)nc(N)c4n3)cc2)CC1` [Compound 4a] the value was 7.00. Turning to `COC(=O)C1CCN(C(=O)c2ccc(N(Cc3ccccc3)Cc3cnc4nc(N)nc(N)c4n3)cc2)CC1` [Compound 2c], the pIC50 against TbDHFR is about 6.00. Moreover, in [1], the inhibition at 10 µM stood at 75%. With `COc1ccc(Oc2ccc(CNCc3cnc4nc(N)nc(N)c4n3)cc2)cc1` [Compound 4i], the “TbDHFR IC50” value on TbDHFR is “inactive”. Also, the “hDHFR IC50” value on hDHFR was “inactive”. For the same molecule, on LmDHFR, the “LmDHFR IC50” value is “inactive”. In turn, `COc1ccc(Oc2ccc(CN(Cc3ccccc3)Cc3cnc4nc(N)nc(N)c4n3)cc2)cc1` [Compound 5e] registered a CC50 in [3] of 12500 to 25000 nM. As to `COc1ccc(CNC(=O)c2ccc(CNCc3cnc4nc(N)nc(N)c4n3)cc2)cc1` [Compound 4f], the “% inhibition T. brucei at 10 µM ± SD” value in series [1] is “inactive”.
